System: HT-22
Experiment: Neuroprotective activity against glutamate-induced cell death in mouse HT-22 cells assessed as increase in cell viability after 24 hrs by EZ-Cytox assay
Type: functional, cell-based
Conditions: HT-22, 24 h

| Structure (SMILES) | EC50 |
| --- | --- |
| COc1cc(/C=C/C(=O)NC[C@H](O)c2ccc(O)cc2)ccc1O | 32.3 µM |
| OC[C@H]1O[C@@H](OCc2ccccc2)[C@H](O)[C@@H](O)[C@@H]1O | > 100 µM |
| O=C(O)/C=C\c1ccc(O)cc1 | > 100 µM |
| O=C(/C=C/c1ccc(O)c(O)c1)O[C@@H]1C[C@](O)(C(=O)O)C[C@@H](OC(=O)/C=C/c2ccc(O)c(O)c2)[C@H]1O | > 100 µM |
| COc1c(O)c(OC)c2c(=O)cc(-c3ccccc3)oc2c1OC | 43.6 µM |
| COc1ccc(-c2cc(=O)c3c(O)cc(O[C@@H]4O[C@H](CO[C@@H]5O[C@@H](C)[C@H](O)[C@@H](O)[C@H]5O)[C@@H](O)[C@H](O)[C@H]4O[C@@H]4O[C@H](COC(C)=O)[C@@H](O)[C@H](O)[C@H]4O)cc3o2)cc1 | > 100 µM |
| COc1ccc(-c2cc(=O)c3c(O)cc(O[C@@H]4O[C@H](CO[C@@H]5O[C@@H](C)[C@H](OC(C)=O)[C@@H](O)[C@H]5O)[C@@H](O)[C@H](O)[C@H]4O)cc3o2)cc1 | > 100 µM |
| CC(C)=CCC/C(C)=C\CO[C@@H]1O[C@H](CO)[C@@H](O)[C@H](O)[C@H]1O | > 100 µM |
| O=C(O)/C=C/C=C/c1ccc(O)c(O[C@@H]2O[C@H](COC(=O)/C=C/c3ccc(O)c(O)c3)[C@@H](O)[C@H](O)[C@H]2O)c1 | 56.2 µM |
| O=C1C[C@@H](c2ccc(O)c(O)c2)Oc2c1ccc(O)c2O | 6.2 µM |
| O=C1/C=C/c2ccc(O)c(c2)O[C@@H]2O[C@H](COC(=O)/C=C/c3cc(O)c(O)cc3C1)[C@@H](O)[C@H](O)[C@H]2O | 8.3 µM |
| O=C(/C=C/c1ccc(O)cc1)c1ccc(O[C@@H]2O[C@H](CO)[C@@H](O)[C@H](O)[C@H]2O)cc1O | 72 µM |
| O=C(/C=C/c1ccc(O)c(O)c1)O[C@H]1CC[C@@H](O)[C@H]1O | > 100 µM |
| COc1ccc(/C=C/C(=O)c2ccc(O[C@@H]3O[C@H](CO)[C@@H](O)[C@H](O)[C@H]3O)cc2O)cc1O | 63.4 µM |
| COc1ccc(-c2cc(=O)c3c(O)cc(O[C@@H]4O[C@H](CO[C@@H]5O[C@@H](C)[C@H](OC(C)=O)[C@@H](O)[C@H]5O)[C@@H](O)[C@H](O)[C@H]4O[C@@H]4O[C@H](COC(C)=O)[C@@H](O)[C@H](OC(C)=O)[C@H]4O)cc3o2)cc1 | > 100 µM |
| COc1ccc(-c2cc(=O)c3c(O)cc(O[C@@H]4O[C@H](CO[C@@H]5O[C@@H](C)[C@H](OC(C)=O)[C@@H](O)[C@H]5O)[C@@H](O)[C@H](O)[C@H]4O[C@@H]4O[C@H](COC(C)=O)[C@@H](O)[C@H](O)[C@H]4O)cc3o2)cc1 | > 100 µM |
| COc1ccc(/C=C/C(=O)c2ccc(O[C@@H]3O[C@H](CO)[C@@H](O)[C@H](O)[C@H]3O)c(O)c2O)cc1O | 4.7 µM |
| COc1ccc(/C=C/C(=O)c2ccc(O)cc2O)cc1O | 35.2 µM |
| COc1ccc(-c2cc(=O)c3c(O)cc(O[C@@H]4O[C@H](CO[C@@H]5O[C@@H](C)[C@H](OC(C)=O)[C@@H](O)[C@H]5O)[C@@H](O)[C@H](O)[C@H]4O[C@@H]4O[C@H](CO)[C@@H](O)[C@H](O)[C@H]4O)cc3o2)cc1 | 69.7 µM |

| Structure (SMILES) | EC50 |
| --- | --- |
| CC(=O)/C=C/c1ccc(O)c(O[C@@H]2O[C@H](COC(=O)/C=C/c3ccc(O)c(O)c3)[C@@H](O)[C@H](O)[C@H]2O)c1 | 62.2 µM |
| COc1ccc(-c2cc(=O)c3c(O)cc(O[C@@H]4O[C@H](CO[C@@H]5O[C@@H](C)[C@H](O)[C@@H](OC(C)=O)[C@H]5O)[C@@H](O)[C@H](O)[C@H]4O[C@@H]4O[C@H](COC(C)=O)[C@@H](O)[C@H](O)[C@H]4O)cc3o2)cc1 | > 100 µM |
| CC(=O)/C=C/c1ccc(O)c(O)c1 | 1.5 µM |
| O=Cc1ccc(O)cc1 [4-HYDROXYBENZALDEHYDE] | 33.2 µM |
| COc1ccc(-c2cc(=O)c3c(O)cc(O[C@@H]4O[C@H](CO[C@@H]5O[C@@H](C)[C@H](O)[C@@H](O)[C@H]5O)[C@@H](O)[C@H](O)[C@H]4O)cc3o2)cc1 [ACACIIN] | 69.3 µM |
| CC(=O)N[C@@H](CS)C(=O)O [ACETYLCYSTEINE] | 700 µM |
| O=c1cc(-c2ccc(O)cc2)oc2cc(O)cc(O)c12 [APIGENIN] | > 100 µM |
| O=c1cc(-c2ccc(O)cc2)oc2cc(O[C@@H]3O[C@H](CO)[C@@H](O)[C@H](O)[C@H]3O)cc(O)c12 [APIGETRIN] | > 100 µM |
| O=C(O)/C=C/c1ccc(O)c(O)c1 [CAFFEIC ACID] | 77.1 µM |
| O=C(O)/C=C/c1ccc(O)cc1 [COUMARIC ACID] | 6.4 µM |
| COc1ccc(-c2cc(=O)c3c(O)cc(O)cc3o2)cc1O [DIOSMETIN] | 59.7 µM |
| CCOC(=O)/C=C/c1ccc(O)c(O)c1 [ETHYL CAFFEATE] | 1.9 µM |
| COc1cc2oc(-c3ccccc3)cc(=O)c2c(O)c1OC [MOSLOFLAVONE] | 23.4 µM |
| O=C(O)c1ccc(O)cc1 [PARABEN] | > 100 µM |
| O=C(O)c1ccc(O)c(O)c1 [PROTOCATECHUIC ACID] | > 100 µM |
| O=C(/C=C/c1ccc(O)c(O)c1)O[C@H](Cc1ccc(O)c(O)c1)C(=O)O [ROSMARINIC ACID] | 86 µM |
| O=C1/C(=C/c2ccc(O)c(O)c2)Oc2cc(O)ccc21 [SULFURETIN] | 3.5 µM |
| COc1cc(C(=O)O)ccc1O [VANILLIC ACID] | 27.8 µM |
